According to ChEMBL document CHEMBL4680146, “Current progress in antimalarial pharmacotherapy and multi-target drug discovery” (Eur J Med Chem, 2020):
Values after ≈ are worked out from the molar mass of the structure shown. Values belong to the compound of their own block, whether it stands above or below them.

What was measured:
Plasmodium falciparum [1] = experiment: Antimalarial activity against chloroquine-sensitive Plasmodium falciparum 3D7 infected in human red blood cells incubated for 48 hrs by [3H]-hypoxanthine incorporation assay; format: functional, organism-based, RBC; settings: 3D7, Erythrocyte
Falcipain 2 = molecular target: T1, Falcipain 2 (Plasmodium falciparum, UniProt Q9N6S8); experiment: Inhibition of Plasmodium falciparum FP-2
T1 sequence (Q9N6S8 whole entry): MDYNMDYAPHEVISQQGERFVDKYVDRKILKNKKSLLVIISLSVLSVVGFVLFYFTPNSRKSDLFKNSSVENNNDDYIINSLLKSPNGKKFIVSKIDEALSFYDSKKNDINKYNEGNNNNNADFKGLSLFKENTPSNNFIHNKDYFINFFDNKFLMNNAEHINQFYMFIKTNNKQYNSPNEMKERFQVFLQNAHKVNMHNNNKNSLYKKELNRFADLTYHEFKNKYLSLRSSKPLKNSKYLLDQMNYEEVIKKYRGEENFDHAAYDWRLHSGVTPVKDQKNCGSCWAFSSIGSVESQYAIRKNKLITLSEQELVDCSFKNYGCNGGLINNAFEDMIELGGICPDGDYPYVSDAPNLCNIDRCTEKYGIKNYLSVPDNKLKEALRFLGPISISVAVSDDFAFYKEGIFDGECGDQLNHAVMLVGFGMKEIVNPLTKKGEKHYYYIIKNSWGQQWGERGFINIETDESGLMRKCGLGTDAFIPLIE

[2] = Inhibition of Plasmodium falciparum DHFR
Plasmodium falciparum [3] = experiment: Antimalarial activity against chloroquine-resistant Plasmodium falciparum Dd2; format: functional, organism-based
Plasmodium falciparum [4] = experiment: Antimalarial activity against trophozoite stage Plasmodium falciparum 3D7 harboring NLuc infected in human erythrocytes assessed as inhibition of new permeability pathway by measuring infected erythrocytes sensitivity to sorbitol-mediated lysis by luminescence method; format: functional, organism-based; settings: 3D7, Erythrocyte
Plasmodium falciparum [5] = experiment: Antimalarial activity against ring stage Plasmodium falciparum 3D7 measured for 72 hrs by absorbance method; format: functional, organism-based; settings: 3D7, 72 h
[6] = Inhibition of Plasmodium falciparum DHODH expressed in Escherichia coli BL21(DE3) using L-dihydroorotate as substrate measured every 90 secs for 45 mins by absorbance method
Hemozoin = experiment: Inhibition of beta-hematin assessed as heme alkylation at 2 molar equivalents incubated for 30 mins by HPLC analysis relative to control; design: scale not given: the % may be the effect or the level left
Plasmodium falciparum [7] = experiment: Antimalarial activity against chloroquine-sensitive Plasmodium falciparum F32(CQS)Tanzania incubated for 48 hrs by classical radioactive microdilution method; format: functional, organism-based
Plasmodium falciparum [8] = experiment: Antimalarial activity against chloroquine-sensitive Plasmodium falciparum 3D7 by SyBR Green method
Plasmodium vivax [9] = experiment: Antimalarial activity against Plasmodium vivax infected in human blood incubated for 24 to 36 hrs; format: functional, organism-based
Plasmodium falciparum [10] = experiment: Antimalarial activity against multi-resistant Plasmodium falciparum infected in human erythrocytes assessed as inhibition of [G-3H]hypoxanthine uptake incubated for 42 hrs by liquid scintillation counting method; format: functional, organism-based; settings: Erythrocyte
Plasmodium falciparum [11] = experiment: Antimalarial activity against chloroquine-resistant Plasmodium falciparum K1 infected in human erythrocytes assessed as inhibition of [G-3H]hypoxanthine uptake preincubated for 24 hrs followed by [G-3H]hypoxanthine addition and measured after 18 to 24 hrs by scintillation spectrometry; format: functional, organism-based; settings: K1, Erythrocyte
Plasmodium falciparum [12] = experiment: Antimalarial activity against chloroquine-resistant Plasmodium falciparum T996 infected in human erythrocytes assessed as inhibition of [G-3H]hypoxanthine uptake preincubated for 24 hrs followed by [G-3H]hypoxanthine addition and measured after 18 to 24 hrs by scintillation spectrometry; format: functional, organism-based; settings: T996, Erythrocyte
Plasmodium falciparum [13] = experiment: Antimalarial activity against Plasmodium falciparum 3D7A asexual forms assessed as inhibition of [G-3H]hypoxanthine uptake incubated for 24 hrs followed by [G-3H]hypoxanthine addition and measured after 18 hrs by liquid scintillation spectrometry; format: functional, organism-based
Plasmodium falciparum [14] = experiment: Antimalarial activity against Plasmodium falciparum infected in human erythrocytes assessed as inhibition of [G-3H]hypoxanthine uptake incubated for 42 hrs by liquid scintillation spectrometry; format: functional, organism-based; settings: Erythrocyte
Plasmodium falciparum [15] = experiment: Antimalarial activity against Plasmodium falciparum 3D7 asexual forms incubated for 72 hrs by luminescence method; format: functional, organism-based; settings: 3D7, 72 h
Plasmodium vivax [16] = experiment: Antimalarial activity against Plasmodium vivax infected in human blood incubated for 40 to 44 hrs; format: functional, organism-based

SMILES: C[C@@H]1CC[C@H]2[C@@H](C)C(OCCN3CC[N+](CCNc4ccnc5cc(Cl)ccc45)(CCOC4O[C@@H]5O[C@@]6(C)CC[C@H]7[C@H](C)CC[C@@H]([C@H]4C)[C@@]57OO6)CC3)O[C@@H]3O[C@@]4(C)CC[C@@H]1[C@]32OO4 (some centres undefined)
IC50 (Plasmodium falciparum [1]): 29.5 nM

SMILES: Nc1ncc(NCc2ccc(CCNC(=O)c3ccc(F)cc3)cc2)c(N)n1
IC50 (Falcipain 2): 6800 nM | IC50 [2]: 8800 nM | IC50 (Plasmodium falciparum [3]): 1100 nM

SMILES: C[C@@H]1CC[C@H]2[C@@H](C)C(OCCN(CCCNc3ccnc4cc(Cl)ccc34)CCOC3O[C@@H]4O[C@@]5(C)CC[C@H]6[C@H](C)CC[C@@H]([C@H]3C)[C@@]46OO5)O[C@@H]3O[C@@]4(C)CC[C@@H]1[C@]32OO4 (some centres undefined)
IC50 (Plasmodium falciparum [1]): 8.7 nM

SMILES: COc1cccc(NC(=O)CSc2nc(-c3ccccc3Cl)ns2)c1
EC50 (Plasmodium falciparum [4]): 367 nM | EC50 (Plasmodium falciparum [5]): 2480 nM | EC50 [6]: 158000 nM

SMILES: O=C(Nc1ccc(-c2cn3ccsc3n2)cc1)c1ccc(S(=O)(=O)N2CCCCCC2)cc1
EC50 (Plasmodium falciparum [4]): 222 nM | EC50 [6]: > 250000 nM

SMILES: CC(C)C1=C[C@H]2OC3(CCC(NCCNc4ccnc5cc(Cl)ccc45)CC3)OO[C@@]2(C)CC1 (some centres undefined)
Activity (Hemozoin): 60%

SMILES: C[C@@H]1CC[C@H]2[C@@H](C)C(=O)O[C@@H]3O[C@@]4(C)CC[C@@H]1[C@]32OO4 [ARTEMISININ]
IC50 (Plasmodium falciparum [7]): 7 nM

SMILES: C[C@H]1[C@H](OC(=O)CCC(=O)O)O[C@@H]2O[C@@]3(C)CC[C@H]4[C@H](C)CC[C@@H]1[C@@]24OO3 [ARTESUNATE]
IC50 (Plasmodium falciparum [8]): 2 nM

IC50 (Plasmodium vivax [9]): 1620 nM
SMILES: Nc1ccc(S(=O)(=O)c2ccc(N)cc2)cc1 [DAPSONE]

SMILES: C[C@H]1c2cccc(O)c2C(=O)C2=C(O)[C@]3(O)C(=O)C(C(N)=O)=C(O)[C@@H](N(C)C)[C@@H]3[C@@H](O)[C@@H]21 [DOXYCYCLINE]
IC50 (Plasmodium falciparum [10]): 5100 nM

SMILES: CCN(CCO)CCCC(C)Nc1ccnc2cc(Cl)ccc12 (centres undefined) [HYDROXYCHLOROQUINE]
IC50 (Plasmodium falciparum [11]): 2220 nM | IC50 (Plasmodium falciparum [12]): 21.5 nM

IC50 (Plasmodium falciparum [13]): 3.2 nM
SMILES: CCCCN(CCCC)CC(O)c1cc(Cl)cc2c1-c1ccc(Cl)cc1/C2=C/c1ccc(Cl)cc1 (centres undefined) [LUMEFANTRINE]

IC50 (Plasmodium falciparum [14]): 81.3 nM
SMILES: Clc1ccc2c(N3CCN(CCCN4CCN(c5ccnc6cc(Cl)ccc56)CC4)CC3)ccnc2c1 [PIPERAQUINE]

IC50 (Plasmodium falciparum [13]): > 10000 nM
SMILES: COc1cc(NC(C)CCCN)c2ncccc2c1 (centres undefined) [PRIMAQUINE]

SMILES: CCc1nc(N)nc(N)c1-c1ccc(Cl)cc1 [PYRIMETHAMINE]
IC50 (Plasmodium falciparum [15]): 4.35 nM | IC50 (Plasmodium falciparum [3]): > 10000 nM

SMILES: C=C[C@H]1CN2CC[C@H]1C[C@H]2[C@H](O)c1ccnc2ccc(OC)cc12 [QUININE]
IC50 (Plasmodium falciparum [13]): 66 nM

IC50 (Plasmodium vivax [16]): 0.01 µg/mL (≈ 0.0322 µM)
SMILES: COc1ncnc(NS(=O)(=O)c2ccc(N)cc2)c1OC [SULFADOXINE]
